Where a SMILES comes first, the peptide text is derived from it. Where no end group is shown, it is not given here. The star is where a group is joined. Palmitoyl = CCCCCCCCCCCCCCCC(=O)*; Lauroyl = CCCCCCCCCCCC(=O)*; C16 = C16 lipid tail
Columns and labels:
[1] = Organ distribution of PA (kidney, liver, lung, spleen, aorta) by LSFM; assay type: in vivo, Sprague Dawley rats; details: 2 hours post injection (FIG. 11)
Procedure: (A) Organ distribution of MMP-2 targeting PA 1 in the kidney, liver, lung, spleen, and aorta of Sprague Dawley rats 2 hours post injection. White color represents autofluorescence and red to yellow represents TAMRA-labeled PA. (B) Plotted mean data of the ratio of PA to tissue in each organ.
Targeting specificity of both MMP-2-targeting and elastin-targeting PAs to the aneurysmal aorta, non-aneurysmal suprarenal aorta, and all vital organs is assessed using in vivo imaging system (IVIS), light-sheet fluorescence microscopy (LSFM), and immunofluorescence (IF) microscopy. […] Targeting specificity was determined by measuring pixel count above an assigned threshold. Further, MMP-2 was quantified using IF microscopy and correlated to the amount of MMP-2-targeting PA. When no adverse side effects occurred, the dosage was increased until we achieved saturation of targeting. With this experiment, we confirmed that targeted PA nanomaterials localized to the site of interest and optimal dose for duration studies was determined. Results are shown for 2 hours post PA injection of either 2.5 mg, 5 mg, or 10 mg of MMP-2-targeting PA 1. A higher PA volume to tissue volume ratio is seen in the 5 mg and 10 mg dose than the 2.5 mg dose. The 5 mg dose was selected for further investigation. […]

[2] = tested on: aneurysmal aorta (CaCl2-induced AAA of the infrarenal aorta); assay: Targeting of PA nanomaterials to aneurysmal tissue in CaCl2-induced AAA rats (LSFM / fluorescence microscopy after intravenous injection); assay type: in vivo, Sprague Dawley rats; details: for targeting to the rat aorta (LSFM images): 2 hours post PA injection (FIG. 8A); for Targeting Capability: Table 1, aneurysm targeting
Description: We also validated the CaCl2 model, by inducing aneurysms in 10 male and 7 female Sprague Dawley rats. We measured aortic diameter before AAA induction and then at days 14, 21, and 28 after induction using ultrasound. At day 35, we performed an endpoint surgery and measured the diameter of the aorta, perfusion-fixed the rats, and collected tissue. Tissue was cryo-sectioned and assayed for elastin (Verhoeff-Van Gieson (VVG)), calcium (Von Kossa), and MMP-2 (IF) staining. […] There was no significant difference between male and female rats in aortic dilation (data not shown). Further, we found both elastin fragmentation, and robust MMP-2 protein staining in the aortas exposed to CaCl2, with negligible amounts of fragmentation and MMP-2 in the suprarenal aortas from the same animals (FIG. 2 C+F). Fragmentation of elastin and MMP-2 corresponded to regions of the aorta that were calcified (FIG. 2E).
To evaluate the targeting specificity of the targeted PA nanomaterials, we induced AAA in the infrarenal aorta of Sprague Dawley rats by exposure to CaCl2. After 35 days, a period consistent with aneurysm formation, the targeted PA nanomaterials was injected intravenously. We assessed targeting specificity and duration to aneurysmal sites as well as to all vital organs. We also determined optimal concentration, dose, and co-assembly ratios. Controls included rats injected with saline alone, non-targeted PA nanomaterials, and PA nanomaterials bearing a scrambled targeting sequence.
Experimental Design. Dosage and targeting specificity. To evaluate specific localization of targeted PA nanomaterials, AAA is induced in the infrarenal aorta of male and female Sprague Dawley rats by exposure to CaCl2) (FIG. 4 and FIG. 5A). The features of human AAA can be recapitulated in rodent models. Here, we developed and validated a surgical model of AAA, where CaCl2 is applied to the periadventitial surface of the aorta.^4, 18 While no single model perfectly replicates human AAA, similarities between CaCl2-induced AAA and human aneurysms makes this a useful model. […]
Aortic dilation is measured using ultrasound imaging. […]
Targeting specificity of both MMP-2-targeting and elastin-targeting PAs to the aneurysmal aorta, non-aneurysmal suprarenal aorta, and all vital organs is assessed using in vivo imaging system (IVIS), light-sheet fluorescence microscopy (LSFM), and immunofluorescence (IF) microscopy. […] Targeting specificity was determined by measuring pixel count above an assigned threshold. Further, MMP-2 was quantified using IF microscopy and correlated to the amount of MMP-2-targeting PA. […] With this experiment, we confirmed that targeted PA nanomaterials localized to the site of interest and optimal dose for duration studies was determined. […]

## CCCCCCCCCCCCCCCC(=O)N[C@H](C(=O)N[C@H](C(=O)N[C@@H](C)C(=O)N[C@@H](C)C(=O)N[C@@H](CCC(=O)O)C(=O)N[C@@H](CCC(=O)O)C(=O)NCC(=O)NCC(=O)N[C@@H](CCCNC(=N)N)C(=O)NCC(=O)N[C@@H](C)C(=O)N[C@@H](C)C(=O)N1CCC[C@H]1C(=O)N1CCC[C@H]1C(=O)N[C@@H](CCCCN)C(=O)N[C@@H](CCC(N)=O)C(=O)N[C@@H](CCC(=O)O)C(=O)N[C@@H](Cc1ccccc1)C(=O)N[C@@H](CC(C)C)C(=O)N[C@@H](CC(=O)O)C(=O)N[C@H](C(=O)N[C@@H](CCC(=O)O)C(=O)O)[C@@H](C)CC)C(C)C)C(C)C [MMP-2_RGA] (Palmitoyl-VVAAEEGGRGAAPPKQEFLDIE-OH; N-terminus and C-terminus assumed)
[1]; listed as MMP-2-targeting PA 1
  organ distribution (kidney, liver, lung, spleen, aorta): predominantly localized to the aorta
[1]; listed as MMP-2 targeting PA
  organ distribution (kidney, liver, lung, spleen, aorta): predominantly localizes to the aorta

## PLSEWRASYNGGEEAAVVK(C12) (PLSEWRASYNGGEEAAVVK(Lauroyl)) [Fragmented Elastin_PLS, fragmented elastin-targeting peptide amphiphile on E2A2V2K(C12) diluent backbone]
[2]
  targeting to the rat aorta (LSFM images): targeting to the rat aorta
  Targeting Capability: Does not target

## (C16)VVAAEEGGLWMDWVTEKNIN (C16-VVAAEEGGLWMDWVTEKNIN) [MTI-MMP_LWM, MT1-MMP-targeting peptide amphiphile]
[2]
  targeting to the rat aorta (LSFM images): targeting to the rat aorta
  Targeting Capability: Targets aneurysm

— patent publication US20230072949A1, “NANOMATERIALS FOR TARGETED TREATMENT AND IMAGING OF ANEURYSMAL MICROENVIRONMENT” (The University of North Carolina at Chapel Hill, priority 2020, published 2023)
